# Experimental data from US6664231B1, “Anti-fungal peptides” (priority 1993, dated 2003).
# Square brackets hold non-standard residues; d marks the D form. Peptide text beside a SMILES is read from it. Phe(4-NH2) = Nc1ccc(C[C@H](N)C(=O)O)cc1; NMeV = CN[C@H](C(=O)O)C(C)C; Dab = NCC[C@H](N)C(=O)O
# Tested on: C. albicans (CA-1, Strain SLU-1)
# Assay: Radial diffusion assay
# Format: cell-based, Candida albicans
# Settings: pmoles of peptide added to well to achieve a 30 mm^2 zone, PROBIT analysis; crude or purified (P′) peptide
# Method in brief: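 Yeast at 1×10^6 CFU/mL in agarose underlayer (3% Sabouraud, 10 mM sodium phosphate pH 7.4); 2-fold peptide dilutions in D-PBS from ~1 mg/mL loaded into wells, 3 h at 37° C, then nutrient overlayer overnight. Value: pmol/well giving 30 mm^2 net clear zone, by PROBIT regression.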
row,Compound,C. albicans pmol/30 mm^2 zone
1,CC[C@H](C)[C@H](NC(=O)[C@H](CC(C)C)NC(=O)[C@H](Cc1c[nH]c2ccccc12)NC(=O)[C@H](CCN)NC(=O)[C@@H](N)CCN)C(=O)N[C@@H](CCC(N)=O)C(=O)N[C@@H](CC(C)C)C(=O)N[C@@H](CCN)C(=O)N[C@@H](CCN)C(N)=O [XMP.339] (H-[Dab][Dab]WLIQL[Dab][Dab]-NH2),"2,878 pmol/30 mm^2 zone"
2,H-KSKVGWLIQLFHAK-NH2 [XMP.43],785 pmol/30 mm^2 zone
3,XMP.380: K - K - Q - L - L - L - L - K - K (SEQ ID NO:211) (KKQLLLLKK),886 pmol/30 mm^2 zone
4,H-KSKVGWLIFLFHKK-NH2 [XMP.91],>3844 pmol/30 mm^2 zone
5,H-KSKVGKLIQLFHKK-NH2 [XMP.135],428 pmol/30 mm^2 zone
6,H-KSKVGWLIQLFLKK-NH2 [XMP.87],>1536 pmol/30 mm^2 zone
7,CC[C@H](C)[C@H](NC(=O)[C@H](CC(C)C)NC(=O)[C@H](Cc1c[nH]c2ccccc12)NC(=O)[C@H](Cc1ccc(N)cc1)NC(=O)[C@@H](N)Cc1ccc(N)cc1)C(=O)N[C@@H](CCC(N)=O)C(=O)N[C@@H](CC(C)C)C(=O)N[C@@H](Cc1ccc(N)cc1)C(=O)N[C@@H](Cc1ccc(N)cc1)C(N)=O [XMP.340] (H-[Phe(4-NH2)][Phe(4-NH2)]WLIQL[Phe(4-NH2)][Phe(4-NH2)]-NH2),b (No detectable activity up to 5 μg/well)
8,H-VKWLIQLFH-NH2 [XMP.296],">5,573 pmol/30 mm^2 zone"
9,H-KSKVGWLILLFHKKKSKVGWLIQLFHKK-NH2 [XMP.270],>722 pmol/30 mm^2 zone
10,H-KSKVGWLINLFHKK-NH2 [XMP.262],984 pmol/30 mm^2 zone
11,H-KVKWLI-NH2 [XMP.313],">11,050 pmol/30 mm^2 zone"
12,H-KSKVGGLIQLFHKK-NH2 [XMP.249],"1,242 pmol/30 mm^2 zone"
13,CC[C@H](C)[C@H](NC(=O)[C@H](CC(C)C)NC(=O)[C@H](NC(=O)CNC(=O)[C@@H](NC(=O)[C@H](CCCCN)NC(=O)[C@H](CO)NC(=O)[C@@H](N)CCCCN)C(C)C)C(C)C)C(=O)N[C@@H](CCC(N)=O)C(=O)N[C@@H](CC(C)C)C(=O)N[C@@H](Cc1ccccc1)C(=O)N[C@@H](Cc1c[nH]cn1)C(=O)N[C@@H](CCCCN)C(=O)N[C@@H](CCCCN)C(N)=O [XMP.253] (H-KSKVG[dV]LIQLFHKK-NH2),"1,108 pmol/30 mm^2 zone"
14,H-KSKVGWLIQLFHKF-NH2 [XMP.96],1856 pmol/30 mm^2 zone
15,H-WLIQLK-NH2 [XMP.321],">5,851 pmol/30 mm^2 zone"
16,CC[C@H](C)[C@H](NC(=O)[C@H](CC(C)C)NC(=O)[C@H](C(C)C)N(C)C(=O)CNC(=O)[C@@H](NC(=O)[C@H](CCCCN)NC(=O)[C@H](CO)NC(=O)[C@@H](N)CCCCN)C(C)C)C(=O)N[C@@H](CCC(N)=O)C(=O)N[C@@H](CC(C)C)C(=O)N[C@@H](Cc1ccccc1)C(=O)N[C@@H](Cc1c[nH]cn1)C(=O)N[C@@H](CCCCN)C(=O)N[C@@H](CCCCN)C(N)=O [XMP.260] (H-KSKVG[NMeV]LIQLFHKK-NH2),742 pmol/30 mm^2 zone
17,H-WLIQLF-NH2 [XMP.316],b (No detectable activity up to 5 μg/well)
18,XMP.137: C-148-161-C (SEQ ID NO:56) (CKSKVGWLIQLFHKKC),>2286 pmol/30 mm^2 zone
19,CC[C@H](C)[C@H](NC(=O)[C@H](CC(C)C)NC(=O)[C@H](Cc1c[nH]c2ccccc12)NC(=O)[C@H](Cc1ccc(N)cc1)NC(=O)[C@@H](NC(=O)[C@H](CCCCN)NC(=O)[C@H](CO)NC(=O)[C@@H](N)CCCCN)C(C)C)C(=O)N[C@@H](Cc1ccc(N)cc1)C(=O)N[C@@H](CC(C)C)C(=O)N[C@@H](Cc1ccccc1)C(=O)N[C@@H](Cc1c[nH]cn1)C(=O)N[C@@H](CCCCN)C(=O)N[C@@H](CCCCN)C(N)=O [XMP.238] (H-KSKV[Phe(4-NH2)]WLI[Phe(4-NH2)]LFHKK-NH2),"2,702 pmol/30 mm^2 zone"

# Same assay, conditions: pmoles of peptide added to well to achieve a 30 mm^2 zone, PROBIT analysis; crude or purified (P′) peptide; listed as XMP.316P′
row,Compound,C. albicans pmol/30 mm^2 zone
1,H-WLIQLF-NH2 [XMP.316],"g (inactive to 7,194 pmol)"

# Same assay, conditions: pmoles of peptide added to well to achieve a 30 mm^2 zone, PROBIT analysis; crude or purified (P′) peptide; listed as XMP.339P′
row,Compound,C. albicans pmol/30 mm^2 zone
1,CC[C@H](C)[C@H](NC(=O)[C@H](CC(C)C)NC(=O)[C@H](Cc1c[nH]c2ccccc12)NC(=O)[C@H](CCN)NC(=O)[C@@H](N)CCN)C(=O)N[C@@H](CCC(N)=O)C(=O)N[C@@H](CC(C)C)C(=O)N[C@@H](CCN)C(=O)N[C@@H](CCN)C(N)=O [XMP.339] (H-[Dab][Dab]WLIQL[Dab][Dab]-NH2),"2,599 pmol/30 mm^2 zone"
